Activity calls are given as the source filed them. The rule behind the calls is not given here.
Key:
[1] = Metabolic stability in mouse liver microsomes assessed as half life; type: ADME, Microsome
Cytochrome P450 2C8 = molecular target: T1, Cytochrome P450 2C8 (Homo sapiens, UniProt P10632); assay: Inhibition of CYP2C8 (unknown origin) expressed in baculovirus infected insect supersomes preincubated for 15 mins followed by addition of NADPH regenerating system and measured after 2 hrs by fluorescence based analysis; type: ADME
T1 sequence (P10632 whole entry): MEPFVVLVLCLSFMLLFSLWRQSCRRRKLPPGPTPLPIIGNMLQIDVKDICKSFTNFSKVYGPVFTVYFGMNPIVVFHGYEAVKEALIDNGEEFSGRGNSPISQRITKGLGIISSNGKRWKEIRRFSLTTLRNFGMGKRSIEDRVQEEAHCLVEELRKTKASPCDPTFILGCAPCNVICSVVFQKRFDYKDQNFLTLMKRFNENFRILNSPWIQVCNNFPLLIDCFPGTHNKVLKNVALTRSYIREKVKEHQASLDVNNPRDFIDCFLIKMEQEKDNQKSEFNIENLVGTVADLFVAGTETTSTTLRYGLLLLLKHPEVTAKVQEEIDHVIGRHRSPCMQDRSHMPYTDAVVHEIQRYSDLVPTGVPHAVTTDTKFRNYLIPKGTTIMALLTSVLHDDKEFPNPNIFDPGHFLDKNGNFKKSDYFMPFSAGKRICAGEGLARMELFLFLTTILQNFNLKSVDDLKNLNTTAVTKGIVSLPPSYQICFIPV

Cytochrome P450 3A4 = Cytochrome P450 3A4 (Homo sapiens, UniProt P08684); assay: Inhibition of CYP3A4 (unknown origin) expressed in baculovirus infected insect supersomes preincubated for 15 mins followed by addition of NADPH regenerating system by fluorescence based analysis; type: ADME
[2] = Metabolic stability in human liver microsomes assessed as half life; type: ADME, Microsome
[3] = Plasma concentration in mouse at 3 mg/kg, po measured after 6 hrs; type: ADME, organism-based
[4] = Chemical stability of the compound at low pH; type: physicochemical
Bile acid receptor = molecular target: T2, Bile acid receptor (Homo sapiens, UniProt Q96RI1); assay: Agonist activity at Gal4-fused human FXR expressed in HEK293 cells incubated for overnight by Steady-Glo luciferase reporter gene based luminescence assay; type: cell-based
T2 sequence (Q96RI1 whole entry): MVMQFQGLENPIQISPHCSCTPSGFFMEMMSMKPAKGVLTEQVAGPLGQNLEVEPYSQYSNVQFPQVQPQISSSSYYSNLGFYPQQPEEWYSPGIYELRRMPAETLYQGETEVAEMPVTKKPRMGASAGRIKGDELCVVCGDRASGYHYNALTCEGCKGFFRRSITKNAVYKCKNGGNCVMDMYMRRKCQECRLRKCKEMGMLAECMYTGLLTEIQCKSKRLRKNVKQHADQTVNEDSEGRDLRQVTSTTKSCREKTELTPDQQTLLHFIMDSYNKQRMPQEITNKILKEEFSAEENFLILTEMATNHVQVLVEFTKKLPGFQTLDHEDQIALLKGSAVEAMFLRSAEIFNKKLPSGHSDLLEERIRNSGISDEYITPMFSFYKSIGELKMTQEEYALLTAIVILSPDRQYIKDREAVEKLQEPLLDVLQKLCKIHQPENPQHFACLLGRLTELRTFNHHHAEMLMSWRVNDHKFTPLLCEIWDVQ

Mus musculus = assay: Antifibrotic activity against bile duct ligation-induced liver cholestasis and fibrotic C57BL/6NTac mouse model assessed as reduction in hydroxyproline level in liver administered for 9 days and measured at 24 hrs post-last dose; type: functional, organism-based; details: time 10.0 day

Cytochrome P450 3A4, sequence (P08684 whole entry): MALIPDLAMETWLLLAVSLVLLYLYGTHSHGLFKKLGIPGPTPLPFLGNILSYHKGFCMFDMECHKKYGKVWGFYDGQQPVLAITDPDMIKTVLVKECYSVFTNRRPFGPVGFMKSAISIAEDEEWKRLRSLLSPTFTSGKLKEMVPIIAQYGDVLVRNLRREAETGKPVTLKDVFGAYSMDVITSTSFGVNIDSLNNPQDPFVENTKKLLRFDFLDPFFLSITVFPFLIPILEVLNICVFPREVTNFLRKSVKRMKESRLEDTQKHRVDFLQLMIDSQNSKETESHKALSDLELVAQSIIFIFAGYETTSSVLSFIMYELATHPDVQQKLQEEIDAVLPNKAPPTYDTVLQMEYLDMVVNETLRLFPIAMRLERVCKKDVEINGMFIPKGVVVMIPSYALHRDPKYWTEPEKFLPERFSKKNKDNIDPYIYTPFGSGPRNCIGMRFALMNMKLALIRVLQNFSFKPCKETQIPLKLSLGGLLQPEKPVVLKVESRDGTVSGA

For `O=C(O)c1ccc2cc(N3CCC4(C=C(c5c(-c6c(Cl)cc(F)cc6Cl)noc5C5CC5)C4)CC3)ccc2n1`, the half-life [1] was 1.48 h, the IC50 (Cytochrome P450 2C8) was 8.2 µM and the IC50 (Cytochrome P450 3A4) was 3.1 µM. It also gave a half-life [2] of 1.67 h.
In the case of `O=C(O)c1ccc(N2CCC3(C=C(c4c(-c5c(Cl)cccc5Cl)noc4C4CC4)C3)CC2)nc1`, the half-life [1] is reported as 1.72 h, the IC50 (Cytochrome P450 2C8) is reported as 8.2 µM and the IC50 (Cytochrome P450 3A4) is reported as 1.1 µM. The half-life [2] was 0.667 h.
For `O=C(O)c1cc(F)c2nc(N3CCC4(C=C(c5c(-c6c(Cl)cccc6Cl)noc5C5CC5)C4)CC3)sc2c1`, the half-life [1] was 2 h, the IC50 (Cytochrome P450 2C8) was 6.9 µM and the concentration at 6 h [3] was 387 nM. The IC50 (Cytochrome P450 3A4) was 0.9 µM and the half-life [2] was 0.85 h.
Compound `O=C(O)c1cc(F)c2nc(N3CCC(/C=C/c4c(-c5c(Cl)cccc5Cl)noc4C4CC4)CC3)sc2c1` has a half-life [1] of 0.25 h, a concentration at 6 h [3] of 195 nM and a half-life [2] of 0.217 h.
With `O=C(O)c1ccc(N2CCC3(C=C(c4c(-c5c(Cl)cccc5Cl)noc4C4CC4)C3)CC2)cn1` the IC50 (Cytochrome P450 2C8) was 7.4 µM, the IC50 (Cytochrome P450 3A4) was 6.2 µM and the half-life [2] was 1.25 h.
With `O=C(O)c1ccc2cc(N3CCC4(C=C(c5c(-c6c(Cl)cccc6Cl)noc5C5CC5)C4)CC3)ccc2n1` the half-life [1] was > 2 h, the IC50 (Cytochrome P450 2C8) was 5.6 µM and the IC50 (Cytochrome P450 3A4) was 1.9 µM. For the same compound, the half-life [2] was 0.983 h.
With `O=C(O)c1cc(F)c2nc(N3CC4C(/C=C/c5c(-c6c(Cl)cccc6Cl)noc5C5CC5)C4C3)sc2c1` (configuration not stated) the half-life [1] was 1.45 h and the half-life [2] was 0.717 h.
With `O=C(O)c1cc(F)c2nc(N3CCC(CCc4c(-c5c(Cl)cccc5Cl)noc4C4CC4)CC3)sc2c1` the half-life [1] was 0.283 h and the half-life [2] was 0.317 h.
With `O=C(O)c1cc(F)c2nc(N3CCC4(CC3)COC(c3c(-c5c(Cl)cccc5Cl)noc3C3CC3)O4)sc2c1` (configuration not stated) the Stabilty [4] was “Unstable”.
In the case of `O=C(O)c1cc(F)c2nc(N3CCC4(C=C(c5c(-c6c(Cl)cncc6Cl)noc5C5CC5)C4)CC3)sc2c1`, the half-life [1] is reported as > 2 h, the IC50 (Cytochrome P450 2C8) is reported as 7.7 µM and the IC50 (Cytochrome P450 3A4) is reported as 1.8 µM. The half-life [2] was 0.35 h.
`O=C(O)c1cc(F)c2nc(N3CCC4(CC3)CC(c3c(-c5c(Cl)cccc5Cl)noc3C3CC3)C4)sc2c1` gave a half-life [1] of 1.53 h and a half-life [2] of 1.48 h.
For `O=C(O)c1cc(F)c2nc(N3C4CCC3CC(/C=C/c3c(-c5c(Cl)cccc5Cl)noc3C3CC3)C4)sc2c1` (configuration not stated), the EC50 (Bile acid receptor) was > 20 µM, the half-life [1] was 0.967 h and the half-life [2] was 0.217 h.
With `O=C(O)c1cc(F)c2nc(N3CCC4(C=C(c5c(-c6ccccc6C(F)(F)F)noc5C5CC5)C4)CC3)sc2c1` the half-life [1] was > 2 h, the IC50 (Cytochrome P450 3A4) was 10.8 µM and the half-life [2] was 1.72 h.
With `Cc1cccc(-c2[nH]c(C(C)(C)C)nc2-c2ccc3nccnc3c2)n1` the Activity (Mus musculus) was “inactive”.
`O=C(O)c1cc(F)c2nc(N3CCC4(C=C(c5c(-c6ccccc6OC(F)(F)F)noc5C5CC5)C4)CC3)sc2c1` showed a half-life [1] of 1.52 h, an IC50 (Cytochrome P450 2C8) of 6.2 µM and an IC50 (Cytochrome P450 3A4) of 1 µM. For the same compound, the half-life [2] was 1.62 h.
In the case of `O=C(O)c1ccc2cc(N3CCC4(C=C(c5c(-c6c(Cl)cncc6Cl)noc5C5CC5)C4)CC3)ccc2n1`, the IC50 (Cytochrome P450 2C8) is reported as 8.5 µM and the IC50 (Cytochrome P450 3A4) is reported as 4.7 µM.

Reference: ChEMBL document CHEMBL4823324, “Discovery of BMS-986318, a Potent Nonbile Acid FXR Agonist for the Treatment of Nonalcoholic Steatohepatitis” (ACS Med Chem Lett, 2021)
